# Patent US8399106B2, “Composition and method for treating wood” (Kemira OyJ, priority 2007, dated 2013)
# Legend:
# [1] = wood treated only with a chelating agent; as described in WO 0123154; cited from earlier work
# [2] = test system: Aureobasidium pullulans and Sclerophoma pithyophila (pooled suspension); settings: literature reference, 1.0% of NHA; cited from earlier work
# rot fungi = test: Rot resistance / wood protection class (EN 350-1), fungus not specified; format: cell-based; settings: treated wood
# Experimental: Rot testing was carried out according to the EN 113 standard. 10 test samples impregnated with respective agents for each of the three rot fungi were used in the test. A sample made of surface wood of pine was placed as a control with the impregnated test samples to the same container for the rot test. Activity of each fungus was tested with eight test samples (so-called infection test). Said test samples for the fungus activity testing were placed in respective containers for the rot test without impregnated test samples.
# In the method, an X value was calculated for each impregnation batch and for each fungus, said X value describing the ratio of the mass loss of the impregnated test samples to that of the unimpregnated control samples. X value was calculated by dividing the corrected mass loss of the impregnated test samples by that of the unimpregnated control samples. The calculation was based on mean values. Based on the result obtained, the rot resistance class was determined as follows for the fungus with the highest rot activity:
smiles,measurement,setting,value
"O=C(O)CN(CCN(CC(=O)O)CC(=O)O)CC(=O)O [EDTA, ethylenediaminetetraacetic acid]","amounts washed out of wood, in words",[1],so high
"O=C1c2cccc3cccc(c23)C(=O)N1O [NHA, N,N-naphthaloylhydroxylamine]",Microbial growth 0 to 5,[2],4 (high amounts of microbial growth (more than 40% of the surface of the test sample covered by microbial growth))
O=C[O-].O=C[O-].[Ca+2] [calcium formate],"wood protection class (rot protection standard EN 350-1, classes 1-5)",rot fungi,3 (Class 3=reasonably resistant 0.30<X≦0.60)
